Test results as given in US8134015B2, “Compound inhibiting in vivo phosphorous transport and medicine containing the same” (Kyowa Hakko Kirin Co., Ltd., priority 2003, dated 2012).

What follows are compounds tested against T1, rat NaPi-2b (Rattus norvegicus, UniProt Q9JJ09) (assay: Sodium-dependent phosphate uptake of Xenopus oocytes which expressed NaPi-2b (32P)). Conditions: Xenopus oocytes expressing rat NaPi-2b, 32P radioactive phosphorus; read-out: IC50 (phosphate uptake inhibitory activity).
T1 construct: expressed in transfected cells; host or cells: Xenopus oocytes injected with cRNA
T1 sequence (Q9JJ09 1-695): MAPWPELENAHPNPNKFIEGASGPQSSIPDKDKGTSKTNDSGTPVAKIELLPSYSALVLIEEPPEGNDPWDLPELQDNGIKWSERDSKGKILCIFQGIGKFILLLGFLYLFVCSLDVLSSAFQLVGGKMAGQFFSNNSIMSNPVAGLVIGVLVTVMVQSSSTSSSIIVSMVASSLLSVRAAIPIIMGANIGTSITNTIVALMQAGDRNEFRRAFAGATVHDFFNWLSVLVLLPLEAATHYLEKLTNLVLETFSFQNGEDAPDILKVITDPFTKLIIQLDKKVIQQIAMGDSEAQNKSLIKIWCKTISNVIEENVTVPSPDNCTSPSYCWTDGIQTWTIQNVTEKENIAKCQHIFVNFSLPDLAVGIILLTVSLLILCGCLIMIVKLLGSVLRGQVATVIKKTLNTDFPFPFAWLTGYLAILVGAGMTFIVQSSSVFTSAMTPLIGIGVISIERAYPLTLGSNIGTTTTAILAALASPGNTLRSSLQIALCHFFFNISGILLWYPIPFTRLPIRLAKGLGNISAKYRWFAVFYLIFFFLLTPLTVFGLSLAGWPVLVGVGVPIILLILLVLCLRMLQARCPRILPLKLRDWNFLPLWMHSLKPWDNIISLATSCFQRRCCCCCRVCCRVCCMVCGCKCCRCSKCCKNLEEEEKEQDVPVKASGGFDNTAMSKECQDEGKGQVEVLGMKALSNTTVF
Assay type: cell-based
How it was run: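 Read-out is 32P phosphate uptake into Xenopus oocytes expressing rat intestinal NaPi-2b (cRNA injection, 2-day culture). Inhibition at 300 μM and 100 μM was derived from a single inhibition curve and given as percent.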

First: Cc1ccc(/C=N/n2c(-c3cccc(CSc4nc[nH]n4)c3)nc3sc4c(c3c2=O)CCCC4)cc1 [Compound 647, 3-[(4-Methyl-benzylidene-)-amino]-2-[3-(1H-[1,2,4]triazol-3-ylsulfanylmethyl)-phenyl]-5,6,7,8-tetrahydro-3H-benzo[4,5]thieno[2,3-d]pyrimidin-4-one]
Second: O=c1c2c3c(sc2nc(-c2cccc(CSc4nc[nH]n4)c2)n1/N=C/c1ccc(F)cc1)CCCC3 [Compound 648, 3-[(4-Fluoro-benzylidene-)-amino]-2-[3-(1H-[1,2,4]triazol-3-ylsulfanylmethyl)-phenyl]-5,6,7,8-tetrahydro-3H-benzo[4,5]thieno[2,3-d]pyrimidin-4-one]
The IC50 of the first is 2.8-fold higher: 5.62 µM for the first, 2.04 µM for the second. The second is the more potent here.

Compared with `O=c1c2c3c(sc2nc(-c2cccc(CSc4nc[nH]n4)c2)n1/N=C/c1cccc(F)c1)CCCC3` [Compound 649, 3-[(3-Fluoro-benzylidene)-amino]-2-[3-(1H-[1,2,4]triazol-3-ylsulfanylmethyl)-phenyl]-5,6,7,8-tetrahydro-3H-benzo[4,5]thieno[2,3-d]pyrimidin-4-one], `COc1ccc(/C=N/n2c(-c3cccc(CSc4nc[nH]n4)c3)nc3sc4c(c3c2=O)CCCC4)cc1` [Compound 651, 3-[(4-Methoxy-benzylidene)-amino]-2-[3-(1H-[1,2,4]triazol-3-ylsulfanylmethyl)-phenyl]-5,6,7,8-tetrahydro-3H-benzo[4,5]thieno[2,3-d]pyrimidin-4-one] is 98-fold higher in IC50: 2.69 µM for the first, 263 µM for the second.

Going from `O=c1c2c3c(sc2nc(-c2cccc(CSc4nc[nH]n4)c2)n1/N=C/c1ccc(Cl)c(C(F)(F)F)c1)CCCC3` [Compound 650, 3-[(4-Chloro-3-trifluoromethyl-benzylidene)-amino]-2-[3-(1H-[1,2,4]triazol-3-ylsulfanylmethyl)-phenyl]-5,6,7,8-tetrahydro-3H-benzo[4,5]thieno[2,3-d]pyrimidin-4-one] to `CCN(CC)CCN(Cc1cccc(C(=O)Nc2sc3c(c2C(=O)N/N=C/c2ccc(Cl)c(C(F)(F)F)c2)CCCC3)c1)C(C)=O` [Compound 656, 3-{[Acetyl-(2-diethylamino-ethyl)-amino]-methyl}-N-[3-(4-chloro-3-trifluoromethyl-benzylidene-hydrazinocarbonyl)-4,5,6,7-tetrahydro-benzo[b]thiophen-2-yl]-benzamide], the IC50 rises from 0.95 µM to 2.98 µM (3.1-fold).

Going from `CCN(CC)CCN(Cc1cccc(C(=O)Nc2sc3c(c2C(=O)N/N=C/c2ccc(C)c(C)c2)CCCC3)c1)C(C)=O` [Compound 652, 3-{[Acetyl-(2-diethylamino-ethyl)-amino]-methyl}-N-[3-(3,4-dimethyl-benzylidene-hydrazinocarbonyl)-4,5,6,7-tetrahydro-benzo[b]thiophen-2-yl]-benzamide] to `CCN(CC)CCN(Cc1cccc(C(=O)Nc2sc3c(c2C(=O)N/N=C/c2ccc(C)cc2)CCCC3)c1)C(C)=O` [Compound 653, 3-{[Acetyl-(2-diethylamino-ethyl)-amino]-methyl}-N-[3-(4-methyl-benzylidene-hydrazinocarbonyl)-4,5,6,7-tetrahydro-benzo[b]-thiophen-2-yl]-benzamide], the IC50 rises from 0.72 µM to 1.1 µM (1.5-fold).

`CCN(CC)CCN(Cc1cccc(C(=O)Nc2sc3c(c2C(=O)N/N=C/c2ccc(F)cc2)CCCC3)c1)C(C)=O` [Compound 654, 3-{[Acetyl-(2-diethylamino-ethyl)-amino]-methyl}-N-[3-(4-fluoro-benzylidene-hydrazinocarbonyl)-4,5,6,7-tetrahydro-benzo[b]-thiophen-2-yl]-benzamide] and `CCN(CC)CCN(Cc1cccc(C(=O)Nc2sc3c(c2C(=O)N/N=C/c2ccc(OC)cc2)CCCC3)c1)C(C)=O` [Compound 657, 3-{[Acetyl-(2-diethylamino-ethyl)-amino]-methyl}-N-[3-(4-methoxy-benzylidene-hydrazinocarbonyl)-4,5,6,7-tetrahydro-benzo[b]thiophen-2-yl]-benzamide] are within 1.5-fold of each other in IC50: 2.03 µM for the first, 2.63 µM for the second.

Going from `CCN(CC)CCN(Cc1cccc(C(=O)Nc2sc3c(c2C(=O)N/N=C/c2cccc(F)c2)CCCC3)c1)C(C)=O` [Compound 655, 3-{[Acetyl-(2-diethylamino-ethyl)-amino]-methyl}-N-[3-(3-fluoro-benzylidene-hydrazinocarbonyl)-4,5,6,7-tetrahydro-benzo[b]-thiophen-2-yl]-benzamide] to `CCN(CC)CCN(C)Cc1cccc(C(=O)Nc2sccc2C(=O)N/N=C/c2cccc(F)c2)c1` [Compound 667, 3-{[(2-Diethylamino-ethyl)-methyl-amino]-methyl}-N-[3-(3-fluoro-benzylidene-hydrazinocarbonyl)-thiophen-2-yl]-benzamide], the IC50 rises from 1.58 µM to 30.5 µM (19-fold). The first is the more potent here.

First: Cc1ccc(/C=N/NC(=O)c2ccsc2NC(=O)c2cccc(CSCCCO)c2)cc1C [Compound 658, N-[3-(3,4-Dimethyl-benzylidene-hydrazinocarbonyl)-thiophen-2-yl]-3-(3-hydroxy-propylsulfanylmethyl)-benzamide]
Second: Cc1ccc(/C=N/NC(=O)c2ccsc2NC(=O)c2cccc(CSCCCO)c2)cc1 [Compound 659, 3-(3-Hydroxy-propylsulfanylmethyl)-N-[3-(4-methyl-benzylidene-hydrazinocarbonyl)-thiophen-2-yl]-benzamide]
The IC50 of the first is lower: under 3 µM for the first, 12.4 µM for the second. The first is the more potent here.

Going from `O=C(Nc1sccc1C(=O)N/N=C/c1ccc(F)cc1)c1cccc(CSCCCO)c1` [Compound 660, N-[3-(4-Fluoro-benzylidene-hydrazinocarbonyl)-thiophen-2-yl]-3-(3-hydroxy-propylsulfanylmethyl)-benzamide] to `COc1ccc(/C=N/NC(=O)c2ccsc2NC(=O)c2cccc(CSCCCO)c2)cc1` [Compound 663, 3-(3-Hydroxy-propylsulfanylmethyl)-N-[3-(4-methoxy-benzylidene-hydrazinocarbonyl)-thiophen-2-yl]-benzamide], the IC50 rises from 18.7 µM to 137 µM (7.3-fold). The first is the more potent here.

`O=C(Nc1sccc1C(=O)N/N=C/c1cccc(F)c1)c1cccc(CSCCCO)c1` [Compound 661, N-[3-(3-Fluoro-benzylidene-hydrazinocarbonyl)-thiophen-2-yl]-3-(3-hydroxy-propylsulfanylmethyl)-benzamide] and `O=C(Nc1sccc1C(=O)N/N=C/c1ccc(Cl)c(C(F)(F)F)c1)c1cccc(CSCCCO)c1` [Compound 662, N-[3-(4-Chloro-3-trifluoromethyl-benzylidene-hydrazinocarbonyl)-thiophen-2-yl]-3-(3-hydroxy-propylsulfanylmethyl)-benzamide] cannot be ordered by IC50: under 10 µM for the first, 3.2 µM for the second.

Going from `CCN(CC)CCN(C)Cc1cccc(C(=O)Nc2sccc2C(=O)N/N=C/c2ccc(C)c(C)c2)c1` [Compound 664, 3-{[(2-Diethylamino-ethyl)-methyl-amino]-methyl}-N-[3-(3,4-dimethyl-benzylidene-hydrazinocarbonyl)-thiophen-2-yl]-benzamide] to `CCN(CC)CCN(C)Cc1cccc(C(=O)Nc2sccc2C(=O)N/N=C/c2ccc(F)cc2)c1` [Compound 666, 3-{[(2-Diethylamino-ethyl)-methyl-amino]-methyl}-N-[3-(4-fluoro-benzylidene-hydrazinocarbonyl)-thiophen-2-yl]-benzamide], the IC50 rises from 15.1 µM to 31.2 µM (2.1-fold).

Compared with `CCN(CC)CCN(C)Cc1cccc(C(=O)Nc2sccc2C(=O)N/N=C/c2ccc(Cl)c(C(F)(F)F)c2)c1` [Compound 668, N-[3-(4-Chloro-3-trifluoromethyl-benzylidene-hydrazinocarbonyl)-thiophen-2-yl]-3-{[(2-diethylamino-ethyl)-methyl-amino]-methyl}-benzamide], `CCN(CC)CCN(C)Cc1cccc(C(=O)Nc2sccc2C(=O)N/N=C/c2ccc(OC)cc2)c1` [Compound 669, 3-{[(2-Diethylamino-ethyl)-methyl-amino]-methyl}-N-[3-(4-methoxy-benzylidene-hydrazinocarbonyl)-thiophen-2-yl]-benzamide] is 1.7-fold higher in IC50: 9.13 µM for the first, 15.3 µM for the second.

Going from `Cc1ccc(/C=N/NC(=O)c2ccsc2NC(=O)c2cccc(CN(CC(C)O)CC(C)O)c2)cc1` (centres unmarked) [Compound 671, 3-{[Bis-(2-hydroxy-propyl)-amino]-methyl}-N-[3-(4-methyl-benzylidene-hydrazinocarbonyl)-thiophen-2-yl]-benzamide] to `CC(O)CN(Cc1cccc(C(=O)Nc2sccc2C(=O)N/N=C/c2ccc(F)cc2)c1)CC(C)O` (centres unmarked) [Compound 672, 3-{[Bis-(2-hydroxy-propyl)-amino]-methyl}-N-[3-(4-fluoro-benzylidene-hydrazinocarbonyl)-thiophen-2-yl]-benzamide], the IC50 rises from under 3 µM to 31.2 µM. The first is the more potent here.

Same assay, conditions: phosphate uptake, oocytes expressing rat NaPi-2b; 300 μM, determined from inhibition curve

In order of falling inhibition at 300 µM:
1. CCN(CC)CCN(C)Cc1cccc(C(=O)Nc2sccc2C(=O)N/N=C/c2ccc(C)cc2)c1 [Compound 665, 3-{[(2-Diethylamino-ethyl)-methyl-amino]-methyl}-N-[3-(4-methyl-benzylidene-hydrazinocarbonyl)-thiophen-2-yl]-benzamide]  82.3%
2. Cc1ccc(/C=N/NC(=O)c2ccsc2NC(=O)c2cccc(CN(CC(C)O)CC(C)O)c2)cc1C (centres unmarked) [Compound 670, 3-{[Bis-(2-hydroxy-propyl)-amino]-methyl}-N-[3-(3,4-dimethyl-benzylidene-hydrazinocarbonyl)-thiophen-2-yl]-benzamide]  70.2%
